Data: patent US20250275964A1, “METHODS OF INHIBITING LIVER-TYPE GLUTAMINASE, GLS2” (CORNELL UNIVERSITY, priority 2019, published 2025)

Legend:
[1] = system: Hs 578T cells; assay: 6-day cell proliferation assay, Hs 578T; format: cell-based, human; conditions: proliferation over 6 days
Description: (§1) Human breast cancer cell lines MCF7, BT-474, T-47D, MDA-MB-453, MDA-MB-231, Hs 578T, HCC38, SK-BR-3, and DU4475 were purchased from the American Type Culture Collection (ATCC) and no additional cell authentication was performed. The TSE human breast cancer cell line was supplied by Dr. Steven Abcouwer (University of Michigan). All breast cancer cells were cultured at 37° C. under a 5% CO2 atmosphere in RPMI 1640 medium containing 2 mM glutamine (Gibco) and supplemented with 10% fetal bovine serum (FBS) (Gibco). The 293T cell line (ATCC) used for generating lentivirus particles was cultured as above but using DMEM, high glucose (Gibco).
(§2) Culture medium was added to 12-well plates (1 ml/well) and wells were seeded with cells at Day 0 as follows. MCF7, T-47D, BT-474, HCC38 cells: […] cells/well. MDA-MB-453 and MDA-MB-231 cells: 1×10^4 cells/well. TSE and Hs 578T cells: 0.3×10^4 cells/well. After 16 hours, culture medium was replaced with fresh medium supplemented with appropriate concentrations of inhibitors and was subsequently replaced every 48 hours. On Day 6 cells were trypsinized and suspended in an appropriate volume of culture medium, and the total number of cells per well was determined using a hemocytometer or a TC20 Automated Cell Counter (Bio-Rad).

[2] = system: glutamine-mediated TCA cycle anaplerosis in breast cancer cells; assay: [U-13C]-glutamine labeling and metabolite analysis; format: cell-based, human
Description: The procedures for metabolite extraction from cultured cells are described in previous studies (Cluntun et al., “The Rate of Glycolysis Quantitatively Mediates Specific Histone Acetylation Sites,” Cancer Metab. 3:10 (2015); Liu et al., “A Strategy for Sensitive, Large Scale Quantitative Metabolomics,” J. Vis. Exp. e51358-e51358 (2014), which are hereby incorporated by reference in their entirety). Briefly, adherent cells were grown in 6-well plates in biological triplicate to 80% confluence, medium was rapidly aspirated and cells were washed with cold PBS on ice. Then, 1 ml of extraction solvent (80% methanol/water) cooled to −80° C. was added to each well, and the dishes were transferred to −80° C. for 15 min. Cells were then scraped into the extraction solvent on dry ice. All metabolite extracts were centrifuged at 20,000×g at 4° C. for 10 min. Finally, the solvent in each sample was evaporated in a Speed Vacuum. The cell extracts were dissolved in 15 μl water and 15 μl methanol/acetonitrile (1:1 v/v) (LC-MS optima grade, Thermo Fisher Scientific). Samples were centrifuged at 20,000×g for 10 min at 4° C. and the supernatants were transferred to Liquid Chromatography (LC) vials. The injection volume for polar metabolite analysis was 8 μl.
Cells were grown to 80% confluence in 6-well plates with standard culture medium and washed with sterile PBS. Then, culture medium in which glutamine was replaced by [^13C5]-L-glutamine (Cambridge Isotope Laboratories), supplemented with dialyzed FBS (Gibco) and appropriate concentrations of inhibitors was added (1.5 ml/well). At the appropriate time-point, metabolites were extracted as described above.
A hydrophilic interaction liquid chromatography method (HILIC) with an Xbridge amide column (100×2.1 mm, 3.5 μm) (Waters) was employed on a Dionex (Ultimate 3000 UHPLC) for compound separation and detection at room temperature. The mobile phase A was 20 mM ammonium acetate and 15 mM ammonium hydroxide in water with 3% acetonitrile, pH 9.0, and the mobile phase B was acetonitrile. The linear gradient was as follows: 0 min, 85% B; 1.5 min, 85% B, 5.5 min, 35% B; 10 min, 35% B, 10.5 min, 35% B, 14.5 min, 35% B, 15 min, 85% B, and 20 min, 85% B. The flow rate was 0.15 ml/min from 0 to 10 min and 15 to 20 min, and 0.3 ml/min from 10.5 to 14.5 min. All solvents were LCMS grade and purchased from Thermo Fisher Scientific.
The Q Exactive MS (Thermo Scientific) is equipped with a heated electrospray ionization probe (HESI), and the relevant parameters are as listed: evaporation temperature, 120° C.; sheath gas, 30; auxiliary gas, 10; sweep gas, 3; spray voltage, 3.6 kV for positive mode and 2.5 kV for negative mode. Capillary temperature was set at 320° C., and S-lens was 55. A full scan range from 60 to 900 (m/z) was used. The resolution was set at 70,000. The maximum injection time was 200 ms. Automated gain control (AGC) was targeted at 3,000,000 ions.
Raw data collected from LC-Q Exactive MS were processed on Sieve 2.0 (Thermo Scientific) and ToxID 2.0 (Thermo Scientific). Peak alignment and detection were performed according to the protocol described by Thermo Scientific. For targeted metabolite analysis, the method ‘peak alignment and frame extraction’ was applied. An input file of theoretical m/z and detected retention time of 204 known metabolites was used for targeted metabolites analysis with data collected in positive mode, while a separate input file of 278 metabolites was used for negative mode. M/Z width was set at 10 ppm. The output file including detected m/z and relative intensity in different samples was obtained after data processing. The quantity of the metabolite fraction analyzed was adjusted to the corresponding protein concentration and cell count upon processing a parallel 6-well plate. Quantitation and statistics were calculated and visualized with Microsoft Excel, MORPHEUS and MetaboAnalyst online software.

[3] = system: breast cancer cell lines; assay: 6-day cell proliferation assay, collection of breast cancer cell lines; format: cell-based, human
Description: as §1, §2

[4] = system: primary human mammary epithelial cells or fibroblasts; conditions: Wang et al. 2010; cited from earlier work

Row | SMILES | EC50 [1] [µM] | supply of glutamine-derived carbon to glutamate and the TCA cycle ([2]; Hs 578T, 10 μM) | glutamine anaplerosis ([2]; MCF7, 10 μM) | supply of glutamine-derived carbon to glutamate and the TCA cycle ([2]; MDA-MB-231, 10 μM) | glutamine-mediated anaplerosis ([2]; MDA-MB-453, 10 μM) | EC50 ([3]; breast cancer cells, 6 days) [µM] | maximal inhibition ([3]; cells with highest expression of GLS) | growth of primary human mammary epithelial cells or fibroblasts [4] | anaplerosis effect compared between cell lines ([2]; 10 μM, MDA-MB-453 versus MDA-MB-231) | total abundance of TCA cycle intermediates ([2]; MDA-MB-231 and MDA-MB-453, 10 μM, different periods of time) | glutamine-mediated TCA cycle anaplerosis ([2]; basal- and luminal-subtype cells, 10 μM, 10, 24 and 72 hours)
1 | O=C(Cc1ccccc1)Nc1nnc(CCSCCc2nnc(NC(=O)Cc3ccccc3)s2)s1 [BPTES] | 3.7 | potently inhibited | partially blocked | potently inhibited | no impact | – | – | – | – | – | –
2 | CN(C)c1ccc(C2Nc3ccc4ccccc4c3C3=C2C(=O)CC(C)(C)C3)cc1Br (stereo not drawn) [Compound 968] | 4 | – | – | – | – | 3 to 5 | 70-75% | does not affect the growth | more pronounced in MDA-MB-453 cells than MDA-MB-231 cells | decreased | time-dependent inhibition
